Assay results as given in patent US20210198201A1, “Orally Active Melanocortin Receptor-4 Compounds” (Palatin Technologies, Inc., priority 2018, published 2021).
Marks after values point to notes of the source that are not given here.

Assays:
[1] = target: T1, MC4r (Homo sapiens, UniProt P32245); assay: cAMP functional study in human MC4r expression system approximating maximal physiologic receptor densities; format: cell-based; design: host or cells: TREx-293; conditions: low receptor density human MC4r system; for Emax: read-out: relative efficacy, compared to NDP-α-MSH
T1 sequence (P32245 whole entry): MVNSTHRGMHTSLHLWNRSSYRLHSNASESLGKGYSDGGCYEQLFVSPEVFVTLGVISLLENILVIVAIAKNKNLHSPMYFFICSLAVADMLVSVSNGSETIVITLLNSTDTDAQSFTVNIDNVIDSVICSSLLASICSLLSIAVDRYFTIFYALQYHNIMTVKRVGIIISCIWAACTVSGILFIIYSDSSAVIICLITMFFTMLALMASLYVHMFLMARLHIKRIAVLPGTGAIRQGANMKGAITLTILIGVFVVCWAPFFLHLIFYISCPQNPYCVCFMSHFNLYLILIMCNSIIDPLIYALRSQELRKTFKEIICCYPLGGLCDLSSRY
Method: Assay for Agonist Activity. Accumulation of intracellular cAMP was examined as a measure of the ability of the peptides of the present invention to elicit a functional response in HEK-293 cells that express MC4-R. Confluent HEK-293 cells that express recombinant hMC4-R were detached from culture plates by incubation in enzyme-free cell dissociation buffer. Dispersed cells were suspended in Hanks' Balanced Salt Solution containing 10 mM HEPES (pH 7.5), 1 mM MgCl2, 1 mM glutamine, 0.5% albumin and 0.3 mM 3-isobutyl-1-methyl-xanthine (IBMX), a phosphodiesterase inhibitor. The cells were plated in 96-well plates at a density of 0.5×10^5 cells per well and pre-incubated for 10 minutes. Cells were exposed for 15 minutes at 37° C. to peptides of the present invention dissolved in DMSO (final DMSO concentration of 1%) at a concentration range of 0.05-5000 nM in a total assay volume of 200 μL. NDP-α-MSH was used as the reference agonist. cAMP levels were determined by an HTRF® cAMP cell-based assay system from Cisbio Bioassays utilizing cryptate-labeled anti-cAMP and d2-labeled cAMP, with plates read on a Perkin-Elmer Victor plate reader at […]. Data analysis was performed by nonlinear regression analysis with Graph-Pad Prism® software. The maximum efficacies of the test peptides of the present invention were compared to that achieved by the reference melanocortin agonist NDP-αMSH.
Low Receptor Density Systems. In functional studies preferably a human MC4r expression system approximating maximal human physiologic receptor densities is employed. In one aspect, a tetracycline-regulated mammalian expression system that uses regulatory elements from the E. coli Tn10-encoded tetracycline (Tet) resistance operon was employed (T-REx™ System, Invitrogen). By use of the T-REx™ System, expression of the gene of interest, the human MC4-R gene, was repressed in the absence of tetracycline or doxycycline and induced in the presence of tetracycline or doxycycline, with receptor density being dependent on the concentration of tetracycline or doxycycline. See generally Yao F. et al: Tetracycline repressor, tetR, rather than the tetR-mammalian cell transcription factor fusion derivatives, regulates inducible gene expression in mammalian cells. Hum. Gene Ther. 9:1939-1950 (1998), incorporated here by reference. Regulation was based on the binding of tetracycline or doxycycline, a derivative of tetracycline, to the Tet repressor and derepression of the promoter controlling expression of the human MC4-R gene. In general tetracycline or related regulators, such as tetracycline-derivatives, may be used to induce the gene expression. An inducible expression plasmid for expression of human MC4-R gene under the control of the strong human cytomegalovirus immediate-early (CMV) promoter and two tetracycline operator 2 (TetO2) sites was employed, together with a regulatory plasmid, pcDNA6/TR, which encodes the Tet repressor (TetR) under the control of the human SV40 promoter. Thus, expression of the human MC4-R gene from the inducible expression vector was controlled by the strong CMV promoter into which 2 copies of the tet operator 2 (TetO2) sequence had been inserted in tandem. The TetO2 sequences consisted of 2 copies of 19-nucleotide sequence separated by a 2 base pair spacer. Each 19 nucleotide TetO2 sequence served as the binding site for 2 molecules of the Tet repressor. The expression vector pcDNA4/TO/MC4R was introduced into TREx-293 (Invitrogen, R710-07), a cell line stably expressing the tetracycline repressor pcDNA6/TR using lipofectamin 2000 reagent (Invitrogen, 11668-019). Alternatively, both the expression vector and repressor are introduced into host cells by standard transformation or transfection methods.

[2] = target: T1, MC4r; assay: Competitive inhibition binding assay, MC4r; design: expressed in transfected cells; host or cells: HEK-293 (membrane homogenates); conditions: binding studies
Method: (§1) A competitive inhibition binding assay is performed using membrane homogenates prepared from HEK-293 cells that express recombinant hMC1ra, hMC4r, hMC3r, or hMC5r, and from B16-F10 mouse melanoma cells (containing endogenous MC1r). In the examples that follow, all values are for human recombinant receptors unless otherwise noted. Assays are performed in 96 well GF/B Millipore multiscreen filtration plates (MAFB NOB10) pre-coated with 0.5% bovine serum albumin (Fraction V). […] After incubation for 60 to 90 minutes at 37° C., the assay mixture is filtered and the membranes washed three times with ice-cold buffer. Filters are dried and counted in a gamma counter for bound radioactivity.
(§2) Maximal specific binding (100%) is defined as the difference in radioactivity (cpm) bound to cell membranes in the absence and presence of 1 μM NDP-α-MSH. […] Each assay is conducted in duplicate or triplicate and the actual mean values are described, with results less than 0% reported as 0%. Ki values for test compounds are determined using Graph-Pad Prism® curve-fitting software.
Competitive Binding Assay Using Eu-NDP-α-MSH. Alternatively, a competitive inhibition binding assay is performed employing Eu-NDP-α-MSH (PerkinElmer Life Sciences catalog No. AD0225) with determination by time-resolved fluorometry (TRF) of the lanthanide chelate. […] After incubation for 90 minutes at 37° C., the reaction was stopped by filtration over Acro Well 96-well filter plates (Pall Life Sciences). The filter plates were washed 4 times with 200 μL of ice-cold phosphate-buffered saline. DELFIA Enhancement solution (PerkinElmer Life Sciences) was added to each well. The plates were incubated on a shaker for 15 minutes and read at 340 nm excitation and 615 nm emission wavelengths. Each assay was conducted in duplicate and mean values were utilized. Ki values were determined by curve-fitting with Graph-Pad Prism® software using a one-site fixed-slope competition binding model.

[3] = target: T2, MC1r (Homo sapiens, UniProt Q01726); assay: Competitive inhibition binding assay, MC1r; conditions: binding studies
T2 construct: expressed in transfected cells; host or cells: HEK-293 (membrane homogenates)
T2 sequence (Q01726 whole entry): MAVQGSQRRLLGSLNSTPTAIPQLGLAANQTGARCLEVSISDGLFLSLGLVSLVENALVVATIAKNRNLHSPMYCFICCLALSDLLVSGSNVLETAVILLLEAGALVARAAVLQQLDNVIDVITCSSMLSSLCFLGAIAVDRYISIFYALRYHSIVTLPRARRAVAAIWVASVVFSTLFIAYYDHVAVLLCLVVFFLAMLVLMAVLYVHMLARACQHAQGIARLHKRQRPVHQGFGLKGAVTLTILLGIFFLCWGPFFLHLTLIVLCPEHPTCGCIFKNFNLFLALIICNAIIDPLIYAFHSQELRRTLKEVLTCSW
Method: as §1, §2

[4] = test system: C57BL/6 male DIO mice; assay: Body weight and food intake in vivo study in diet induced obese mice; design: species or system mouse; conditions: for Body Weight Change (%) Mean / Food Intake - 24 Hours (g) Mean: 1 mg/kg subcutaneous twice daily
Method: Compound 7.1 was assessed in a body weight and food intake in vivo study in diet induced obese […] mice. C57BL/6 male DIO mice were utilized, that were 17 weeks of age on arrival. Animals were pre-conditioned on a high-fat diet for 11 weeks by Jackson Labs. […] Animals were single housed within a limited access rodent facility, and provided ad libitum with a commercial rodent diet and free access to drinking water. Animals were randomized into five groups, a vehicle group, three dose levels of compound 7.1 (3 mg/kg, 10 mg/kg and 30 mg/kg), and Peptide A, a positive control cyclic peptide of the formula Ac-Arg-cyclo(Orn-Asn-D-Phe-Arg-Trp-Glu)-NH2. Following three days of sham dosing, animals were dosed for three days, with vehicle or Compound 7.1 dosed orally once daily at within one hour of lights out in the AM, and Peptide A dosed by subcutaneous injection twice daily within one hour before lights out and six hours after lights out. Body weights were measured one hour prior to lights out, and feed weights were measured both one hour prior to lights out and six hours post lights out.
*p<0.05 vs. sham (vehicle control) using two-way ANOVA followed by Dunnett's post-test.
**p<0.01 vs sham (vehicle control) using two-way ANOVA followed by Dunnett's post-test.

Row | Molecule | EC50 [1] [nM] | Emax [1] [%] | Ki [2] [nM] | further results
1 | CCC(N)(CC)C(=O)N[C@H](Cc1ccc(Cl)cc1)C(=O)N1CCN(N(CC(C)C)C2CCN(C(C)=O)CC2)CC1 [Compound 7.6, N-[(1R)-2-[4-[(1-acetyl-4-piperidyl)-isobutyl-amino]piperazin-1-yl]-1-[(4-chlorophenyl)methyl]-2-oxo-ethyl]-2-amino-2-ethyl-butanamide] | 25 | 34 | 13 | –
2 | CC(=O)N1CCC(N(CC(C)C)N2CCN(C(=O)[C@@H](Cc3ccc(Cl)cc3)NC(=O)C3(N)CCCCC3)CC2)CC1 [Compound 7.5, N-[(1R)-2-[4-[(1-acetyl-4-piperidyl)-isobutyl-amino]piperazin-1-yl]-1-[(4-chlorophenyl)methyl]-2-oxo-ethyl]-1-amino-cyclohexanecarboxamide] | 9 | 15 | 4 | –
3 | CNC(C)(C)C(=O)N[C@H](Cc1ccc(Cl)cc1)C(=O)N1CCN(N(CC(C)C)C2CCN(C(C)=O)CC2)CC1 [Compound 7.9, N-[(1R)-2-[4-[(1-acetyl-4-piperidyl)-isobutyl-amino]piperazin-1-yl]-1-[(4-chlorophenyl)methyl]-2-oxo-ethyl]-2-methyl-2-(methylamino)propanamide] | – | – | – | relative efficacy, compared to NDP-α-MSH [1]: 19%
4 | CC(=O)N1CCC(N(CC(C)C)N2CCN(C(=O)[C@@H](Cc3ccc(Cl)cc3)NC(=O)C3(N)CC3)CC2)CC1 [Compound 7.2, N-[(1R)-2-[4-[(1-acetyl-4-piperidyl)-isobutyl-amino]piperazin-1-yl]-1-[(4-chlorophenyl)methyl]-2-oxo-ethyl]-1-amino-cyclopropanecarboxamide] | – | 3 | 5 | Ki [3]: 40 nM
5 | CC(=O)N1CCC(N(CC(C)C)N2CCN(C(=O)[C@@H](Cc3ccc(Cl)cc3)NC(=O)C3(N)CCCCCC3)CC2)CC1 [Compound 7.7, N-[(1R)-2-[4-[(1-acetyl-4-piperidyl)-isobutyl-amino]piperazin-1-yl]-1-[(4-chlorophenyl)methyl]-2-oxo-ethyl]-1-amino-cycloheptanecarboxamide] | – | 8 | 3 | –
6 | CCNC(=O)N1CCC(N(CC(C)C)N2CCN(C(=O)[C@@H](Cc3ccc(Cl)cc3)NC(=O)C(C)(C)N)CC2)CC1 [Compound 7.8, 4-[[4-[(2R)-2-[(2-amino-2-methyl-propanoyl)amino]-3-(4-chlorophenyl)propanoyl]piperazin-1-yl]-isobutyl-amino]-N-ethyl-piperidine-1-carboxamide] | 52 | 28 | 6 | Ki [3]: 150 nM
7 | CC(=O)N1CCC(N(CC(C)C)N2CCN(C(=O)[C@@H](Cc3ccc(Cl)cc3)NC(=O)C3(C)CCCN3)CC2)CC1 (stereo partly drawn) [Compound 7.11, N-[(1R)-2-[4-[(1-acetyl-4-piperidyl)-isobutyl-amino]piperazin-1-yl]-1-[(4-chlorophenyl)methyl]-2-oxo-ethyl]-2-methyl-pyrrolidine-2-carboxamide] | 6 | 13 | 6 | –
8 | CC(C)CN(C1CCN(C(=O)CO)CC1)N1CCN(C(=O)[C@@H](Cc2ccc(Cl)cc2)NC(=O)C(C)(C)N)CC1 [Compound 7.10, 2-amino-N-[(1R)-1-[(4-chlorophenyl)methyl]-2-[4-[[1-(2-hydroxyacetyl)-4-piperidyl]-isobutyl-amino]piperazin-1-yl]-2-oxo-ethyl]-2-methyl-propanamide] | 9 | 22 | 5 | –
9 | CC(=O)N1CCC(N(CC(C)C)N2CCN(C(=O)[C@@H](Cc3ccc(Cl)cc3)NC(=O)C3(N)CCC3)CC2)CC1 [Compound 7.3, N-[(1R)-2-[4-[(1-acetyl-4-piperidyl)-isobutyl-amino]piperazin-1-yl]-1-[(4-chlorophenyl)methyl]-2-oxo-ethyl]-1-amino-cyclobutanecarboxamide] | – | 10 | 3 | –
10 | CC(=O)N1CCC(N(CC(C)C)N2CCN(C(=O)[C@@H](Cc3ccc(Cl)cc3)NC(=O)C3(N)CCCC3)CC2)CC1 [Compound 7.4, N-[(1R)-2-[4-[(1-acetyl-4-piperidyl)-isobutyl-amino]piperazin-1-yl]-1-[(4-chlorophenyl)methyl]-2-oxo-ethyl]-1-amino-cyclopentanecarboxamide] | – | 10 | 4 | –
11 | Ac-Arg-cyclo(Orn-Asn-D-Phe-Arg-Trp-Glu)-NH2 [Peptide A] | – | – | – | Body Weight Change (%) Mean ([4]; Day 0): 0%; Food Intake - 24 Hours (g) Mean ([4]; Day 0, 24 hours post lights out): 0.99** g; Body Weight Change (%) Mean ([4]; Day 1): −5.69** %; Food Intake - 24 Hours (g) Mean ([4]; Day 1, 24 hours post lights out): 1.10** g; Body Weight Change (%) Mean ([4]; Day 2): −8.37** %; Food Intake - 24 Hours (g) Mean ([4]; Day 2, 24 hours post lights out): 1.67** g; Body Weight Change (%) Mean ([4]; Day 3): −8.78** %; effect on feed intake at 24 hours post lights out (in words) ([4]; 1 mg/kg, entirety of the study, compared with sham animals): significantly inhibited feed intake; effect on body weight (in words) ([4]; two times daily 1 mg/kg, throughout the study): decreased animal body weights
